Data published in US20260097126A1, “PHARMACEUTICAL FORMULATIONS AND METHODS FOR THE TREATMENT OF METABOLIC AND LIVER DISORDERS” (priority 2022, published 2026).
Numbered stars: 1 amine (or outer) side, 2 acyl side, 3 side chain; on linkers, the order of the positions; unused ones are H or OH. Square brackets hold non-standard residues; d marks the D form. Side chains are listed from the residue outwards. Peptide text beside a SMILES is read from it. * marks the point of attachment. Nonadecanoyl(19-PO3H2) = O=C(CCCCCCCCCCCCCCCCCCP(=O)(O)O)*; γGlu = O=C(O)[C@H](CCC(=O)[*:2])N[*:1]; AEEA = NCCOCCOCC(=O)O; Aib = CC(C)(N)C(=O)O

Test: Pharmacokinetic study of Compounds 4, 14, 15, 17 in monkeys
Conditions: cynomolgus monkey, plasma, sc, 0.2 mg/kg
Method: The formulations were administered to cynomolgus monkeys at a dose of 0.2 mg/kg. Plasma concentration versus time data was collected and pharmacokinetic values determined.
For `CC[C@H](C)[C@H](NC(=O)[C@H](CC(C)C)NC(=O)[C@H](Cc1c[nH]c2ccccc12)NC(=O)[C@H](CCC(N)=O)NC(=O)[C@@H](NC(=O)[C@H](Cc1ccccc1)NC(=O)[C@H](C)NC(=O)[C@H](CCCCNC(=O)COCCOCCNC(=O)COCCOCCNC(=O)CC[C@H](NC(=O)CCCCCCCCCCCCCCCCCCP(=O)(O)O)C(=O)O)NC(=O)[C@H](CCC(N)=O)NC(=O)[C@H](C)NC(=O)[C@@H](NC(=O)[C@H](CCCCN)NC(=O)[C@H](CC(=O)O)NC(=O)[C@H](CC(C)C)NC(=O)C(C)(C)NC(=O)[C@@H](NC(=O)[C@H](CO)NC(=O)[C@H](Cc1ccc(O)cc1)NC(=O)[C@H](CC(=O)O)NC(=O)[C@H](CO)NC(=O)[C@@H](NC(=O)[C@H](Cc1ccccc1)NC(=O)[C@@H](NC(=O)CNC(=O)[C@H](CCC(=O)O)NC(=O)C(C)(C)NC(=O)[C@@H](N)Cc1ccc(O)cc1)[C@@H](C)O)[C@@H](C)O)[C@@H](C)CC)C(C)C)C(C)C)C(=O)N[C@@H](CCCNC(=N)N)C(=O)NCC(=O)NCC(=O)N1CCC[C@H]1C(=O)N[C@@H](CO)C(=O)N[C@@H](CO)C(=O)NCC(=O)N[C@@H](C)C(=O)N1CCC[C@H]1C(=O)N1CCC[C@H]1C(=O)N1CCC[C@H]1C(=O)N[C@@H](CO)C(N)=O` [Compound 17] (H-Y[Aib]EGTFTSDYSI[Aib]LDKVAQK([AEEA-AEEA-γGlu-Nonadecanoyl(19-PO3H2)])AFVQWLIRGGPSSGAPPPS-NH2), the AUC(0-inf) was 346 µg·h/mL, the AUC(0-t) was 316 µg·h/mL and the CL/F was 14.2 mL/day/kg. For the same compound, the Cmax was 1980 ng/mL, the Tmax was 28 h and the Vd/F was 0.113 L/kg. It also gave a half-life of 5.58 days. Compound `CC[C@H](C)[C@H](NC(=O)[C@H](CC(C)C)NC(=O)[C@H](Cc1c[nH]c2ccccc12)NC(=O)[C@H](CCC(N)=O)NC(=O)[C@@H](NC(=O)[C@H](Cc1ccccc1)NC(=O)[C@H](C)NC(=O)[C@H](CCC(N)=O)NC(=O)[C@H](CCC(N)=O)NC(=O)[C@H](C)NC(=O)[C@@H](NC(=O)[C@H](CCCCNC(=O)COCCOCCNC(=O)COCCOCCNC(=O)CC[C@H](NC(=O)CCCCCCCCCCCCCCCCCCP(=O)(O)O)C(=O)O)NC(=O)[C@H](CC(=O)O)NC(=O)[C@H](CC(C)C)NC(=O)C(C)(C)NC(=O)[C@@H](NC(=O)[C@H](CO)NC(=O)[C@H](Cc1ccc(O)cc1)NC(=O)[C@H](CC(=O)O)NC(=O)[C@H](CO)NC(=O)[C@@H](NC(=O)[C@H](Cc1ccccc1)NC(=O)[C@@H](NC(=O)CNC(=O)[C@H](CCC(=O)O)NC(=O)C(C)(C)NC(=O)[C@@H](N)Cc1ccc(O)cc1)[C@@H](C)O)[C@@H](C)O)[C@@H](C)CC)[C@@H](C)CC)C(C)C)C(=O)N[C@@H](C)C(=O)NCC(=O)NCC(=O)N1CCC[C@H]1C(=O)N[C@@H](CO)C(=O)N[C@@H](CO)C(=O)NCC(=O)N[C@@H](C)C(=O)N1CCC[C@H]1C(=O)N1CCC[C@H]1C(=O)N1CCC[C@H]1C(=O)N[C@@H](CO)C(N)=O` [Compound 15] (H-Y[Aib]EGTFTSDYSI[Aib]LDK([AEEA-AEEA-γGlu-Nonadecanoyl(19-PO3H2)])IAQQAFVQWLIAGGPSSGAPPPS-NH2) has an AUC(0-inf) of 227 µg·h/mL, an AUC(0-t) of 221 µg·h/mL and a CL/F of 21.4 mL/day/kg. For the same compound, the Cmax was 2260 ng/mL, the Tmax was 18.7 h and the Vd/F was 0.114 L/kg. The half-life was 3.72 days. `CC[C@H](C)[C@H](NC(=O)[C@H](CC(C)C)NC(=O)[C@H](Cc1c[nH]c2ccccc12)NC(=O)[C@H](CCC(N)=O)NC(=O)[C@@H](NC(=O)[C@H](Cc1ccccc1)NC(=O)[C@H](C)NC(=O)[C@H](CCCCNC(=O)COCCOCCNC(=O)COCCOCCNC(=O)CC[C@H](NC(=O)CCCCCCCCCCCCCCCCCCP(=O)(O)O)C(=O)O)NC(=O)[C@H](CCC(N)=O)NC(=O)[C@H](C)NC(=O)[C@@H](NC(=O)[C@H](CCCCN)NC(=O)[C@H](CC(=O)O)NC(=O)[C@H](CC(C)C)NC(=O)C(C)(C)NC(=O)[C@@H](NC(=O)[C@H](CO)NC(=O)[C@H](Cc1ccc(O)cc1)NC(=O)[C@H](CC(=O)O)NC(=O)[C@H](CO)NC(=O)[C@@H](NC(=O)[C@H](Cc1ccccc1)NC(=O)[C@@H](NC(=O)CNC(=O)[C@H](CCC(=O)O)NC(=O)C(C)(C)NC(=O)[C@@H](N)Cc1ccc(O)cc1)[C@@H](C)O)[C@@H](C)O)[C@@H](C)CC)[C@@H](C)CC)C(C)C)C(=O)N[C@@H](C)C(=O)NCC(=O)NCC(=O)N1CCC[C@H]1C(=O)N[C@@H](CO)C(=O)N[C@@H](CO)C(=O)NCC(=O)N[C@@H](C)C(=O)N1CCC[C@H]1C(=O)N1CCC[C@H]1C(=O)N1CCC[C@H]1C(=O)N[C@@H](CO)C(N)=O` [Compound 14] gave an AUC(0-inf) of 179 µg·h/mL, an AUC(0-t) of 178 µg·h/mL and a CL/F of 28.6 mL/day/kg. For the same compound, the Cmax was 1430 ng/mL, the Tmax was 24 h and the Vd/F was 0.104 L/kg. The half-life was 2.54 days.
